Results: ChEMBL document CHEMBL4321793, “Can Cysteine Protease Cross-Class Inhibitors Achieve Selectivity?” (J Med Chem, 2019)
pIC50, pKi: −log10 of the molar value.

Experiments:
[1] = target: T1, Procathepsin L (Homo sapiens, UniProt P07711); test: Inhibition of human cathepsin L
[2] = target: Rhodesain (Trypanosoma brucei rhodesiense, UniProt Q95PM0); test: Inhibition of Trypanosoma brucei rhodesiense rhodesain
[3] = target: Cruzipain (Trypanosoma cruzi, UniProt P25779); test: Reversible inhibition of Trypanosoma cruzi cruzipain
[4] = target: T1, Procathepsin L; test: Reversible inhibition of human cathepsin L
[5] = target: Cathepsin B (Homo sapiens, UniProt P07858); test: Reversible inhibition of human cathepsin B
[6] = system: human cathepsin L versus Trypanosoma cruzi cruzipain; test: Selectivity ratio of IC50 for reversible inhibition of human cathepsin L to IC50 for reversible inhibition of Trypanosoma cruzi cruzipain; type: toxicity; settings: read-out: Ratio IC50
[7] = system: human cathepsin B versus Trypanosoma cruzi cruzipain; test: Selectivity ratio of IC50 for reversible inhibition of human cathepsin B to IC50 for reversible inhibition of Trypanosoma cruzi cruzipain; type: toxicity; settings: read-out: Ratio IC50

T1 sequence (P07711 whole entry): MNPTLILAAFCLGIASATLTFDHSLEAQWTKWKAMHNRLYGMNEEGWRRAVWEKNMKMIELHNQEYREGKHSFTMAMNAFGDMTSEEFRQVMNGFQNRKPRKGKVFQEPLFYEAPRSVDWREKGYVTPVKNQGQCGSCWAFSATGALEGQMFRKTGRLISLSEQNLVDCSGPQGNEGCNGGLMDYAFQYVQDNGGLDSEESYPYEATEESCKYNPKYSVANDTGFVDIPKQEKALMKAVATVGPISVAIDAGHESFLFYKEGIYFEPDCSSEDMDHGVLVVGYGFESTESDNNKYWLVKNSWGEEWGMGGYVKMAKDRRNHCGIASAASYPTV
Chain of Cruzipain (P25779 whole entry): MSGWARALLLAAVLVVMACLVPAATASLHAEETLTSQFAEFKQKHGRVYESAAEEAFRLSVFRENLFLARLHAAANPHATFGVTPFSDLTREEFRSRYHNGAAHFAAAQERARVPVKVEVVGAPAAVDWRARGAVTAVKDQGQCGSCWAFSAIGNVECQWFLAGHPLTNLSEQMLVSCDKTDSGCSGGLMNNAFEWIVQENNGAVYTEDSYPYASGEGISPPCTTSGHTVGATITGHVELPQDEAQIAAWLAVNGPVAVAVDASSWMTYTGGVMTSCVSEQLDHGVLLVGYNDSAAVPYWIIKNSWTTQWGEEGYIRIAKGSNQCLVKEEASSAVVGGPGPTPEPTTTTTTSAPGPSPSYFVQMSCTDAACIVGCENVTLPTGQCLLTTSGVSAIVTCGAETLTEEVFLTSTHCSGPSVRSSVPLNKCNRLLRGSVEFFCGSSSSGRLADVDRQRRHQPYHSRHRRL
Chain of Rhodesain (Q95PM0 whole entry): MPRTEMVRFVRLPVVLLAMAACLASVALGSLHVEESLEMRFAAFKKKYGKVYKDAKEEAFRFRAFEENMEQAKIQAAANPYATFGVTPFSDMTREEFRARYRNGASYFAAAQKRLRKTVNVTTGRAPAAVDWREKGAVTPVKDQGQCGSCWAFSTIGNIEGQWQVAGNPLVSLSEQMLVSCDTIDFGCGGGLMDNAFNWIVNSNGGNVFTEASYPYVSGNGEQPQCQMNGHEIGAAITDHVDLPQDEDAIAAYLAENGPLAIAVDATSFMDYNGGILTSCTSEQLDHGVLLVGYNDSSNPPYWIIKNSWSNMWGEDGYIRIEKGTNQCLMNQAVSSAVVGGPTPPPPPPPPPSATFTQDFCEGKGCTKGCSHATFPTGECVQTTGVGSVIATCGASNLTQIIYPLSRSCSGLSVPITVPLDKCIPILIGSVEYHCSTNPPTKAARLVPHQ

Compound	pKi [1]	pKi [2]	pIC50 [3]	pIC50 [4]	pIC50 [5]	selectivity ratio [6]	selectivity ratio [7]
N#Cc1nc(N2CCOCC2)nc(N(Cc2ccc3c(c2)OCO3)C2CCCCC2)n1	7.48	–	–	–	–	–	–
CCC[C@H]1CC[C@H](N(Cc2ccc3c(c2)OCO3)c2nc(C#N)nc(N3CCOCC3)n2)CC1	6.16	8.70	–	–	–	–	–
CC(C)(F)C[C@H](N[C@@H](c1ccc(-c2ccc(N3CCNCC3)cc2)cc1)C(F)(F)F)C(=O)NCC#N	–	–	9.10	7.33	5.95	58	1390
